# From patent US12564644B2, “Cyclodextrin complexes of specialized proresolving mediators” (THETIS PHARMACEUTICALS LLC, priority 2022, dated 2026)
# Tests used:
# [1] = Chemical stability in solution (deionized water) by HPLC, 16 weeks accelerated conditions (Example 10); type: physicochemical; settings: for RvE1 Area % Baseline: 2 mg/ml of RvE1, 40° C., 75% relative humidity, exposed to air; for % Change at Week 16 vs Baseline / RvE1 Area % Week 8 / RvE1 Area % Week 16: 2 mg/ml of RvE1, accelerated conditions
# Protocol: The stability of […] alone (“RvE1 Control”) and complexed with cyclodextrins (“RvE1 CD Complexes”) was evaluated. Samples of the test articles were placed in open test tubes and maintained at 40° C. and 75% relative humidity, exposed to air, for 16 weeks. […] Briefly, HPLC analysis was performed on a Halo Guard column (Halo C18 4.6×150 mm, 2.7 μm), mounted on an Agilent HPLC system equipped with a UV detector (272 nm detection). The mobile phase consisted of a gradient between solution A, water, and solution B, methanol, both containing 100 mM of ammonium formate at pH 4.0. The gradient program was 95-0% with respect to solution A and 5-100% with respect to solution B. The flow rate was 0.9 mL/min over 50 minutes. Lack of stability was indicated by a reduction in the area percent purity (area %) of the single major peak of RvE1 (retention time of 31.3 minutes) and the appearance of new HPLC peaks or an increase in the area % of pre-existing impurities. All HPLC measurements of RvE1 purity and degradant levels were calculated based on area percent relative to the detectable components of the molecule including isomers and epimers of RvE1, impurities and degradants induced by the test conditions. The chemical stability of […] or Na-RvE1 alone and complexed with cyclodextrins in solution was evaluated. Samples of the test articles dissolved in deionized water at a concentration of 2 mg/ml of RvE1 were placed in open test tubes and maintained at 40° C. and 75% relative humidity, exposed to air, over a period of 16 weeks.
# [2] = Long-term solid-state chemical stability by HPLC, 24 weeks accelerated conditions (Example 9); type: physicochemical; settings: for RvE1 Area % (error +/− 1%) Baseline: 40° C., 75% relative humidity, exposed to air; for % Change at Week 24 vs Baseline (degradation rate) / RvE1 Area % (error +/− 1%) Week 8 / RvE1 Area % (error +/− 1%) Week 16 / RvE1 Area % (error +/− 1%) Week 24: accelerated conditions
# Protocol: The stability of RvE1-MgLys alone (“RvE1 Control”) and complexed with cyclodextrins (“RvE1 CD Complexes”) was evaluated. Samples of the test articles were placed in open test tubes and maintained at 40° C. and 75% relative humidity, exposed to air, for 16 weeks. […] Briefly, HPLC analysis was performed on a Halo Guard column (Halo C18 4.6×150 mm, 2.7 μm), mounted on an Agilent HPLC system equipped with a UV detector (272 nm detection). The mobile phase consisted of a gradient between solution A, water, and solution B, methanol, both containing 100 mM of ammonium formate at pH 4.0. The gradient program was 95-0% with respect to solution A and 5-100% with respect to solution B. The flow rate was 0.9 mL/min over 50 minutes. Lack of stability was indicated by a reduction in the area percent purity (area %) of the single major peak of RvE1 (retention time of 31.3 minutes) and the appearance of new HPLC peaks or an increase in the area % of pre-existing impurities. All HPLC measurements of RvE1 purity and degradant levels were calculated based on area percent relative to the detectable components of the molecule including isomers and epimers of RvE1, impurities and degradants induced by the test conditions.
# A study of the chemical stability of both RvE1-Mg-Lys alone and sodium RvE1 (“Na-RvE1”) alone and complexed with cyclodextrins was evaluated over 24 weeks. Samples of the test articles as solids were placed in open test tubes and maintained at 40° C. and 75% relative humidity, exposed to air.
# [3] = Solid-state chemical stability by HPLC, 16 weeks accelerated conditions (Example 8); type: physicochemical
# Protocol: The stability of […] alone (“RvE1 Control”) and complexed with cyclodextrins (“RvE1 CD Complexes”) was evaluated. Samples of the test articles were placed in open test tubes and maintained at 40° C. and 75% relative humidity, exposed to air, for 16 weeks. […] Briefly, HPLC analysis was performed on a Halo Guard column (Halo C18 4.6×150 mm, 2.7 μm), mounted on an Agilent HPLC system equipped with a UV detector (272 nm detection). The mobile phase consisted of a gradient between solution A, water, and solution B, methanol, both containing 100 mM of ammonium formate at pH 4.0. The gradient program was 95-0% with respect to solution A and 5-100% with respect to solution B. The flow rate was 0.9 mL/min over 50 minutes. Lack of stability was indicated by a reduction in the area percent purity (area %) of the single major peak of RvE1 (retention time of 31.3 minutes) and the appearance of new HPLC peaks or an increase in the area % of pre-existing impurities. All HPLC measurements of RvE1 purity and degradant levels were calculated based on area percent relative to the detectable components of the molecule including isomers and epimers of RvE1, impurities and degradants induced by the test conditions.
# [4] = Oral pharmacokinetics, RvE1 in blood plasma after single oral gavage (Example 12); type: in vivo; settings: mice
# Protocol: To establish the comparative oral pharmacokinetics (“PK”) of RvE1 MgLys alone (“RvE1 Control”) and RvE1 MgLys complexed with gamma-cyclodextrin (“RvE1 Complex”), a study was conducted to investigate RvE1 exposure in blood plasma following a single dose of RvE1 Control or RvE1 Complex administered via oral gavage at various timepoints up to 8 hours of 4 mg/kg of RvE1. Quantitative measurement of RvE1 in blood plasma was determined by HPLC-MS/MS performed on a Halo Guard column (Halo C18 4.6×150 mm, 2.7 μm), mounted on an Agilent HPLC system equipped with a UV detector (272 nm detection).
# Sixty five (65) male C57B16 mice were randomized into 3 experimental groups at 8 weeks of age: baseline control (“Baseline”, n=5), RvE1 Control (n=30) and the RvE1 Complex (n=30). Prior to administration of test article, the mice in the Baseline group were sacrificed and blood was drawn to establish the endogenous levels of RvE1 in plasma. The 60 remaining mice received a single dose of RvE1 Control or RvE1 Complex. Five (5) mice in each group were sacrificed at each of the following timepoints to enable the determination of an RvE1 concentration-versus-time curve: 15 minutes, 30 minutes, 1, 2—, 4- and 8-hours post-dose. At the time of sacrifice blood was drawn into EDTA-treated tubes and immediately frozen.
# [5] = Solid-state chemical stability by HPLC, 16 weeks accelerated conditions (Example 8); type: physicochemical; settings: 40° C., 75% relative humidity, exposed to air
# [6] = Solid-state physical stability, visual, ambient conditions 168 hours (Example 11); type: physicochemical; settings: open test tubes, 18-22° C., relative humidity 52% to 72%
# Protocol: The solid-state physical stability of […] alone (“RvE1 Control”) […]-cyclodextrin complex (“RvE1 Complex”) was evaluated (FIG. 24A-D). Samples of the test articles as solids were placed in open test tubes under ambient conditions over a period of 168 hours, at temperature between 18-22° C. and relative humidity between 52% and 72%. The solid-state physical stability was assessed visually based on whether the substance retained its form as a solid powder or transitioned to a liquid form.
# [7] = accelerated conditions, baseline
# [8] = accelerated conditions, week 16
structure (smiles),measurement,setting,value
"CC[C@@H](O)/C=C/C=C/C[C@@H](O)/C=C/C=C/C=C/[C@@H](O)CCCC(=O)[O-].[Na+] [Na-RvE1, sodium RvE1]",RvE1 Area % Baseline,[1],96.2%
same,% Change at Week 16 vs Baseline,[1],80.7%
same,RvE1 Area % Week 8,[1],36.0%
same,RvE1 Area % Week 16,[1]; week 16,18.6%
same,RvE1 Area % Week 16,"[1]; week 16, listed as Na-RvE1 Control",18.6%
same,RvE1 Area % (error +/− 1%) Baseline,[2],96.2%
same,RvE1 Area % (error +/− 1%) Baseline,[2]; listed as Na-RvE1 control,96.2%
same,% Change at Week 24 vs Baseline (degradation rate),[2],100.0%
same,% Change at Week 24 vs Baseline (degradation rate),[2]; listed as Na-RvE1 control,100%
same,RvE1 Area % (error +/− 1%) Week 8,[2],78.0%
same,RvE1 Area % (error +/− 1%) Week 16,[2],49.8%
same,RvE1 Area % (error +/− 1%) Week 24,[2]; week 24,0.0%
same,RvE1 Area % (error +/− 1%) Week 24,"[2]; week 24, listed as Na-RvE1 Control",0%
"CC[C@@H](O)/C=C/C=C\C[C@@H](O)/C=C/C=C/C=C\[C@@H](O)CCCC(=O)O.CC[C@@H](O)/C=C/C=C\C[C@@H](O)/C=C/C=C/C=C\[C@@H](O)CCCC(=O)O.NCCCC[C@H](N)C(=O)[O-].NCCCC[C@H](N)C(=O)[O-].[Mg+2] [RvE1 Control, RvE1 magnesium dilysinate]",RvE1 Area % Baseline,[1],94.8%
same,% Change at Week 16 vs Baseline,[1],45.7%
same,RvE1 Area % Week 8,[1],84.3%
same,RvE1 Area % Week 16,"[1]; week 16, listed as RvE1-MgLys Control",51.5%
same,RvE1 Area % Week 16,"[1]; week 16, listed as RvE1 Mg-Lys",51.5%
same,% Change at Week 16 vs Baseline (degradation rate),"[3]; 40° C., 75% relative humidity, exposed to air",14.1%
same,RvE1 Area % Week 8,"[3]; 40° C., 75% relative humidity, exposed to air, week 8",86.7%
same,RvE1 Area % Week 16,"[3]; 40° C., 75% relative humidity, exposed to air, week 16",80.7%
same,# of Deg. Peaks ≥0.20% Baseline,[3]; [7],6
same,# of Deg. Peaks ≥1.00% Baseline,[3]; [7],2
same,# of Deg. Peaks ≥0.20% Week 8,"[3]; accelerated conditions, week 8",19
same,# of Deg. Peaks ≥1.00% Week 8,"[3]; accelerated conditions, week 8",4
same,# of Deg. Peaks ≥0.20% Week 16,[3]; [8],19
same,# of Deg. Peaks ≥1.00% Week 16,[3]; [8],8
same,RvE1 Area % Baseline,"[3]; open test tubes, 40° C., 75% relative humidity, exposed to air, baseline",94%
same,AUC (0 to 8 hrs),[4]; 4 mg/kg of RvE1,15.2 ng·h/mL
same,Cmax,[4]; 4 mg/kg of RvE1,45.5 ng/mL
same,Tmax,[4]; 4 mg/kg of RvE1,15 min
same,RvE1 plasma concentration 15 min,"[4]; 4 mg/kg of RvE1, 15 min",45.5 ng/mL
same,RvE1 plasma concentration 30 min,"[4]; 4 mg/kg of RvE1, 30 min",6.3 ng/mL
same,RvE1 plasma concentration 1 hr,"[4]; 4 mg/kg of RvE1, 1 hr",1.2 ng/mL
same,RvE1 plasma concentration 2 hr,"[4]; 4 mg/kg of RvE1, 2 hr",0.2 ng/mL
same,RvE1 plasma concentration 4 hr,"[4]; 4 mg/kg of RvE1, 4 hr",0.3 ng/mL
same,RvE1 plasma concentration 8 hr,"[4]; 4 mg/kg of RvE1, 8 hr",0.1 ng/mL
same,RvE1 Area % Week 16,"[5]; week 16, listed as RvE1-MgLys",80.7%
same,RvE1 Area % Baseline,"[5]; open test tubes, baseline, listed as RvE1-MgLys",94.0%
same,RvE1 Area % (error +/− 1%) Baseline,[2]; listed as RvE1 Mg-Lys,94.8%
same,RvE1 Area % (error +/− 1%) Baseline,[2]; listed as RvE1 MgLys control,94.8%
same,% Change at Week 24 vs Baseline (degradation rate),[2]; listed as RvE1-MgLys control,16.6%
same,% Change at Week 24 vs Baseline (degradation rate),[2]; listed as RvE1 Mg-Lys,16.6%
same,RvE1 Area % (error +/− 1%) Week 8,[2],88.4%
same,RvE1 Area % (error +/− 1%) Week 16,[2],82.3%
same,RvE1 Area % (error +/− 1%) Week 24,"[2]; week 24, listed as RvE1-MgLys Control",79.1%
same,RvE1 Area % (error +/− 1%) Week 24,"[2]; week 24, listed as RvE1 Mg-Lys",79.1%
same,"physical form, visual",[6]; 24 and 168 hours,gel-like substance
same,"physical form, visual",[6]; 8 hours,began to agglomerate and turn a darker color
same,"physical form, visual","[6]; 8 hours, listed as RvE1-Control",remained in powder form
same,"physical form, visual",[6]; baseline,powder form
